This is an account of results in ChEMBL document CHEMBL6109064, “Functional and structural polypharmacology of indazole-based privileged ligands to tackle the undruggability of membrane transporters” (Eur J Med Chem, 2025).

The IC50 is the concentration needed to halve the response being measured.

Common to all, as to format: cell-based
Series [1] has as its target T1, Solute carrier family 22 member 2 (Homo sapiens, UniProt O15244).
T1 sequence (O15244 whole entry): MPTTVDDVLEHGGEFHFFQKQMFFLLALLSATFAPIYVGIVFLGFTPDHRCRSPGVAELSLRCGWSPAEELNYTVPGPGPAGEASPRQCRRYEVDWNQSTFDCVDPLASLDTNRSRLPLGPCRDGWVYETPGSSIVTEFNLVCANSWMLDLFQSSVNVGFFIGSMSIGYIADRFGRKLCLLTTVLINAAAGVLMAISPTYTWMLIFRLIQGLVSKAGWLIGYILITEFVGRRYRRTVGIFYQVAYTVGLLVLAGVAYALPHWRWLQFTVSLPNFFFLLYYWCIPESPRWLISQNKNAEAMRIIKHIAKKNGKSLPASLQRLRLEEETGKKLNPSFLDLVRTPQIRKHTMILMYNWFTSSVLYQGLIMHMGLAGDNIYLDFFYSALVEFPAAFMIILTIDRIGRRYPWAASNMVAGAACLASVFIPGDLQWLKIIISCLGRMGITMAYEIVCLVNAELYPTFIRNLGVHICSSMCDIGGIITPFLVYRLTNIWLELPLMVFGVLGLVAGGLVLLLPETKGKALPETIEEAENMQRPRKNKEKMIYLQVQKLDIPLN
Nature of the series: Inhibition of OCT2 (unknown origin) expressed in HEK293 cells assessed as inhibition of ASP+ uptake incubated for 5 mins by fluorescence based analysis.

For series [2], the target named is T2, Broad substrate specificity ATP-binding cassette transporter ABCG2 (Homo sapiens, UniProt Q9UNQ0).
T2 sequence (Q9UNQ0 whole entry): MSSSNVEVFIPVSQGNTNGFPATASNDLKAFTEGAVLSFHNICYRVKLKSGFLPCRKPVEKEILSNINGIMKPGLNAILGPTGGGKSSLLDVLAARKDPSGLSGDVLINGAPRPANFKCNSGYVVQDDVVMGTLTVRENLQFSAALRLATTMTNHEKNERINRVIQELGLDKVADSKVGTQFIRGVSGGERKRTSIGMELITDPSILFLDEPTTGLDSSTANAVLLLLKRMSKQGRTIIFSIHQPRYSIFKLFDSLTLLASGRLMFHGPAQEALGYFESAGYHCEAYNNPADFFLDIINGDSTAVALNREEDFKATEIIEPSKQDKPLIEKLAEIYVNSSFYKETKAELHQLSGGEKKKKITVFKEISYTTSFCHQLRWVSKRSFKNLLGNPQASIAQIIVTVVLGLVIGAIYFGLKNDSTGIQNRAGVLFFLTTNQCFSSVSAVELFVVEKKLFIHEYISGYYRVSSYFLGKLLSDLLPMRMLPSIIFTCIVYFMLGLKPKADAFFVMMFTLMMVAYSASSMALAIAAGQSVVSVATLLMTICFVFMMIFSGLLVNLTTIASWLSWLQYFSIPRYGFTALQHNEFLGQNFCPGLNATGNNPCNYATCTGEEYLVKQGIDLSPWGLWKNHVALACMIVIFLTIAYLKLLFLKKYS
Nature of the series: Inhibition of ABCG2 (unknown origin) expressed in dog MDCK-II-BCRP cells assessed as increase in pheophorbide A fluorescence intensity using pheophorbide as tracer preincubated for 30 mins followed by pheophorbide addition and measured for 180 mins by flow cytometry. Background: Flow cytometry measures light scatter and fluorescence of single cells or particles in a stream.

The target in series [3] is Sodium-dependent dopamine transporter (Homo sapiens) (UniProt Q01959). Nature of the series: Inhibition of DAT (unknown origin) expressed in HEK293 cells assessed as inhibition of MPP+ transport incubated for 5 mins by tandem mass spectrometry.
For series [4], the target named is T3, Solute carrier family 22 member 1 (Homo sapiens, UniProt O15245).
T3 sequence (O15245 whole entry): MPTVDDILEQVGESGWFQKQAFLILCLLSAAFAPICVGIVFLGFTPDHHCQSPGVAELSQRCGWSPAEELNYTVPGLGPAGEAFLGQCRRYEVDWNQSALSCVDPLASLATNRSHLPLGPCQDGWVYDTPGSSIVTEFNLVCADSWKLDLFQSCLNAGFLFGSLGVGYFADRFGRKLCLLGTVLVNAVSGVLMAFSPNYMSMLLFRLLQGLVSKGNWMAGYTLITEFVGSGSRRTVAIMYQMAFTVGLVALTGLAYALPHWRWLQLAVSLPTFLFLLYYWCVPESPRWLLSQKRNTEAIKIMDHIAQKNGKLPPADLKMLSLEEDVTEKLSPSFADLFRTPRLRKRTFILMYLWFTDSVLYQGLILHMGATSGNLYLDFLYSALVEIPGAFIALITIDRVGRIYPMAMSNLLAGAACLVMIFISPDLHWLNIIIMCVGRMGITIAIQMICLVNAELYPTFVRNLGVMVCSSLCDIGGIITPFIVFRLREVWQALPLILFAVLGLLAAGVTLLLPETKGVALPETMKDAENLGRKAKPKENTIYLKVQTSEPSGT
Nature of the series: Inhibition of OCT1 (unknown origin) expressed in HEK293 cells assessed as inhibition of ASP+ uptake incubated for 5 mins by fluorescence based analysis. The note with it: hek293, 5 min.

Active and inactive are the calls of the source. No cut-off for these calls is given here.

Sodium-dependent dopamine transporter (Homo sapiens), sequence (Q01959 whole entry): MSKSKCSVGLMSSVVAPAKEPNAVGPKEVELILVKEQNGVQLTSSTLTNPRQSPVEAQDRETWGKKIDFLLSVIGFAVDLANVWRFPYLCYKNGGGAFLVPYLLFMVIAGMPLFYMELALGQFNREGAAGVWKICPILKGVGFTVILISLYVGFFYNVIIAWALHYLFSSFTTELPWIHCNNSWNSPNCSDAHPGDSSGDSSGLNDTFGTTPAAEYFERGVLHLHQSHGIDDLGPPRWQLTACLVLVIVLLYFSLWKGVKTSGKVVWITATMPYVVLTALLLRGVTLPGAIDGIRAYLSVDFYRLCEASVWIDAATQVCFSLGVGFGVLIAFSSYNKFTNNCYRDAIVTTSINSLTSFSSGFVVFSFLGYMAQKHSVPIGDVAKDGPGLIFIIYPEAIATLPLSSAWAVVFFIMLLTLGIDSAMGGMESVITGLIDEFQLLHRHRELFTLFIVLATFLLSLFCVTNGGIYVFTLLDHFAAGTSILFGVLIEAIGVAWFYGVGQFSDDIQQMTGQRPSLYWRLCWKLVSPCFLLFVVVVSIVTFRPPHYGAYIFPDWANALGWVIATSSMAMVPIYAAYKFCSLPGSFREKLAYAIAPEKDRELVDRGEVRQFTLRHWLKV

For the compound `O=C(Cn1nc(C(=O)Nc2ccccn2)c2ccccc21)Nc1cc(Cl)ccc1Cl`, the IC50 was 50.3 µM in series [1] and 1.17 µM in series [2]. The inhibition entry in series [3] is “inactive”. The “inhibition (INH)” value in series [4] is “Not_active”.

On to `COc1cccc(NC(=O)Cn2nc(C(=O)Nc3cccc(OC)c3)c3ccccc32)c1`, for which the IC50 in series [1] was found to be 20.8 µM; in series [2], 1.33 µM. Besides, the inhibition entry in series [3] is “inactive”. Moreover, in series [4], the “inhibition (INH)” value is “Not_active”.

`O=C(Cn1nc(C(=O)Nc2cccnc2)c2ccccc21)Nc1ccc(Cl)cc1`: the IC50 turned out to be 60.1 µM in series [1] and 14.2 µM in series [2]. In addition, the inhibition entry in series [3] is “inactive”. The “inhibition (INH)” value in series [4] was “Not_active”.

Regarding `COc1cccc(NC(=O)c2nn(CC(=O)Nc3ccccc3OC)c3ccccc23)c1`, the IC50 in series [1] stood at 11.8 µM; in series [2] it was 1.66 µM. In series [3], the inhibition entry is “inactive”. The “inhibition (INH)” value in series [4] is recorded as “Not_active”.
